Some test systems named below: OVCAR-4 ovarian; PC-3 prostate; SNB-19 CNS; HCC-2998 colon; HL-60(TB) leukemia; HT29 colon; SK-MEL-28 melanoma; CAKI-1 renal; M14 melanoma; MOLT-4 leukemia.
Common to all, as to test: DTP human tumour cell line panel, 48 h

Values joined by “and” are separate entries in the source; they are usually repeats but may differ in a detail not shown here. Equal entries are not always repeated.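 Five concentrations, 48 hours, 96-well plates. Here, GI50 denotes the concentration required for 50% inhibition of growth. At the TGI there is no net growth.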 Where a SMILES comes first, the peptide text is derived from it. [ ]: non-standard residue; d: D form. Phe(4-Cl) = N[CH](Cc1ccc(Cl)cc1)C(=O)O

GI50 and TGI data for 11 compounds are collected here from PubChem BioAssay (NCI).

By GI50 is commonly meant the concentration that inhibits growth by half. What is called TGI is the concentration giving total growth inhibition. A lower TGI goes with greater sensitivity of the cells. Turning to `Fc1cc(F)c(COc2cc(Cn3cnc4c(Cl)nc(Cl)nc43)ccc2C23CC4CC(CC(C4)C2)C3)cc1F`, the GI50 with OVCAR-4 ovarian was 19.5 µM; in the assay on PC-3 prostate, 19.3 µM; in the assay with SNB-19 CNS, 17.5 µM; in the assay on HCC-2998 colon, 18.7 µM; with HL-60(TB) leukemia, 1.99 µM; in the assay with HT29 colon, 23.6 µM. For the same compound, the GI50 in the assay on SK-MEL-28 melanoma was 18.2 µM; with CAKI-1 renal it was 10.4 µM. Also, the total growth inhibition concentration (TGI) worked out at 44 µM in the assay with OVCAR-4 ovarian; 33.8 µM in the assay on PC-3 prostate; 31.7 µM in the assay with SNB-19 CNS; 33.5 µM in the assay on HCC-2998 colon; 4.58 µM with HL-60(TB) leukemia; 62.5 µM with HT29 colon. Further, the TGI with SK-MEL-28 melanoma was 37.4 µM; with CAKI-1 renal, 22.8 µM.

Consider `CCCCN=C(N)c1ccc(OCCSCCOc2ccc(C(N)=NCCCC)cc2)cc1`, for which the GI50 in the assay with OVCAR-4 ovarian is 3.94 µM; with PC-3 prostate, 4.4 µM; in the assay on HCC-2998 colon, 5.87 µM; with HL-60(TB) leukemia, 5.97 µM; in the assay with M14 melanoma it was 28.4 µM; in the assay with MOLT-4 leukemia, 20.9 µM. Further, the values for the GI50 with HT29 colon, in the assay on SK-MEL-28 melanoma and in the assay with CAKI-1 renal were 2.79 µM, 20 µM and above 100 µM, respectively. Moreover, the TGI is above 100 µM in the assay with OVCAR-4 ovarian; 98.6 µM in the assay with PC-3 prostate; above 100 µM in the assay on HCC-2998 colon; 30 µM with HL-60(TB) leukemia; above 100 µM with M14 melanoma; above 100 µM in the assay on MOLT-4 leukemia. Further, the total growth inhibition concentration (TGI) in the assay on HT29 colon, in the assay with SK-MEL-28 melanoma and in the assay with CAKI-1 renal was above 100 µM in each case.

Consider `COc1ccc(-c2cn3ccsc3n2)cc1`, for which the TGI in the assay on OVCAR-4 ovarian was above 100 µM; with SNB-19 CNS it was above 100 µM; with HCC-2998 colon, above 100 µM; with HL-60(TB) leukemia, 85.7 µM; in the assay on M14 melanoma, above 100 µM; in the assay on MOLT-4 leukemia, above 100 µM. The total growth inhibition concentration (TGI) with HT29 colon, in the assay with SK-MEL-28 melanoma and in the assay with CAKI-1 renal was above 100 µM throughout.

`O=C(O)CC1OCC=C2CN3CCC45c6ccccc6NC4C1C2CC35` (stereo not drawn): the TGI in the assay on OVCAR-4 ovarian, in the assay with PC-3 prostate, with SNB-19 CNS, with HL-60(TB) leukemia, in the assay on M14 melanoma and in the assay on MOLT-4 leukemia was above 100 µM throughout. The TGI in the assay with HT29 colon, in the assay with SK-MEL-28 melanoma and with CAKI-1 renal was above 100 µM in each case.

With `Nc1ccc(/C=C/c2ccnc3ccccc23)cc1`, the TGI with OVCAR-4 ovarian is above 100 µM; in the assay on SNB-19 CNS, 79.3 µM; in the assay with HCC-2998 colon it was 57.7 µM; with HL-60(TB) leukemia, 23.8 µM; in the assay on M14 melanoma, 51.5 µM; with MOLT-4 leukemia it was 38.7 µM. For the same compound, the concentration for total growth inhibition (TGI) in the assay with HT29 colon was 65.1 µM; in the assay on SK-MEL-28 melanoma, above 100 µM; with CAKI-1 renal it was 63.9 µM.

On to `Cc1ccc(/C(=C/C=C(C#N)C#N)Sc2ccc(Cl)cc2)cc1`, for which the GI50 in the assay with OVCAR-4 ovarian was 11.3 µM; with PC-3 prostate, 3.65 µM; in the assay on SNB-19 CNS it was 11 µM; with HCC-2998 colon, 18 µM; in the assay with M14 melanoma it was 5.44 µM; in the assay with MOLT-4 leukemia it was 1.85 µM. Also, the GI50 with SK-MEL-28 melanoma was 10.6 µM; in the assay with CAKI-1 renal it was 2.03 µM. The TGI in the assay with OVCAR-4 ovarian is above 100 µM; in the assay with PC-3 prostate, 14.7 µM; in the assay on SNB-19 CNS, 25.3 µM; in the assay on HCC-2998 colon, 31.9 µM; in the assay with M14 melanoma, 17.7 µM; with MOLT-4 leukemia, 14.3 µM. Besides, the concentration for total growth inhibition (TGI) in the assay on SK-MEL-28 melanoma came out at 46.8 µM; with CAKI-1 renal it was 5.3 µM.

Take `COc1c2c(cc3nc4ccccc4nc13)CCC(C(C)(C)O)C2` (stereo not drawn): the TGI in the assay with OVCAR-4 ovarian was above 100 µM; in the assay with SNB-19 CNS, above 100 µM; with HCC-2998 colon, above 100 µM; in the assay on HL-60(TB) leukemia it was 76 µM; in the assay on M14 melanoma, above 100 µM; in the assay with MOLT-4 leukemia, above 100 µM. Also, the concentration for total growth inhibition (TGI) in the assay on HT29 colon, with SK-MEL-28 melanoma and with CAKI-1 renal was above 100 µM each time.

Consider `N#Cc1nc(C2OC(COC(=O)c3ccccc3)C(OC(=O)c3ccccc3)C2OC(=O)c2ccccc2)oc1N` (stereo not drawn), for which the total growth inhibition concentration (TGI) in the assay with OVCAR-4 ovarian is above 100 µM; in the assay with SNB-19 CNS, above 100 µM; in the assay on HCC-2998 colon, above 100 µM; with HL-60(TB) leukemia, 36.3 µM; with M14 melanoma it was above 100 µM; with MOLT-4 leukemia it was above 100 µM. Further, the TGI with HT29 colon, in the assay with SK-MEL-28 melanoma and with CAKI-1 renal was above 100 µM in each case.

As for `CC(=O)OC[C@]12CC[C@H]3[C@@H](C[C@H]4O[C@]45[C@@H](O)C=CC(=O)[C@]35C)[C@@H]1CC[C@@H]2[C@H](C)[C@H]1CC(C)=C(C)C(=O)O1`, the concentration for 50% growth inhibition (GI50) with OVCAR-4 ovarian is 0.571 µM and 0.331 µM; in the assay with SNB-19 CNS, 0.7 µM and 1.16 µM; with HCC-2998 colon, 0.822 µM and 0.795 µM; with HL-60(TB) leukemia it was 0.243 µM and 0.119 µM; in the assay with M14 melanoma, 0.442 µM and 0.32 µM; with MOLT-4 leukemia, 0.289 µM and 0.191 µM. Further, the GI50 in the assay on HT29 colon was 0.302 µM and 0.305 µM; in the assay with SK-MEL-28 melanoma, 0.526 µM and 0.381 µM; in the assay on CAKI-1 renal, 0.385 µM and 0.266 µM. Also, the TGI in the assay on OVCAR-4 ovarian was 0.9 µM and 1.06 µM; in the assay with SNB-19 CNS it was 0.899 µM and 2.52 µM; with HCC-2998 colon it was 2.07 µM; in the assay with HL-60(TB) leukemia, 0.642 µM and 0.37 µM; in the assay on M14 melanoma, 1.11 µM; in the assay on MOLT-4 leukemia it was 0.878 µM and 0.615 µM. Further, the TGI in the assay on HT29 colon is 0.716 µM and 0.961 µM; in the assay with SK-MEL-28 melanoma, 1.09 µM; with CAKI-1 renal, 0.831 µM and 1.08 µM.

`CC(O)C(NC(=O)C(Cc1ccccc1)NC(=O)C(NC(=O)C(CCCCN)NC(=O)C(Cc1c[nH]c2ccccc12)NC(=O)C(Cc1ccc(O)cc1)NC(=O)C(Cc1ccc(Cl)cc1)NC(=O)C(N)Cc1ccccc1)C(C)O)C(N)=O` (stereo not drawn) (H-F[Phe(4-Cl)]YWKTFT-NH2; configuration not given here): the TGI came to 58.7 µM in the assay with OVCAR-4 ovarian; 34.1 µM with SNB-19 CNS; 73.7 µM with HCC-2998 colon; 28.6 µM in the assay on HL-60(TB) leukemia; 47.1 µM with M14 melanoma; 62.2 µM in the assay with MOLT-4 leukemia. The results for the TGI in the assay on HT29 colon, with SK-MEL-28 melanoma and in the assay on CAKI-1 renal were 62.8 µM, 41.8 µM and 39.5 µM, respectively.

Consider `NC(CC(=O)OCc1ccccc1)C(=O)OCc1ccccc1` (stereo not drawn), for which the TGI in the assay on PC-3 prostate was above 100 µM; in the assay on SNB-19 CNS, above 100 µM; in the assay on HCC-2998 colon it was 89.1 µM; in the assay on M14 melanoma it was above 100 µM; in the assay with SK-MEL-28 melanoma it was above 100 µM; in the assay on CAKI-1 renal, above 100 µM.
